Test results as given in ChEMBL document CHEMBL1629543, “Recovery of humoral immunity is critical for successful antiviral therapy in disseminated mouse adenovirus type 1 infection” (Antimicrob Agents Chemother, 2008).
Active and inactive are the calls of the source. The rule behind the calls is not given here.

How the values were obtained:
Murine adenovirus 1 = details: Liver, 100 mg/kg
Description: Antiviral activity against MAV-1 infected in immunocompromized BALB/c mouse assessed as decrease in viral DNA load in liver at 100 mg/kg, ip treated 8 days before infection measured after 28 days post infection by RT-PCR

Mus musculus [1] = species: Mus musculus; details: BALB/c, 100 mg/kg
Description: Immunosuppressive activity against MAV-1 infected BALB/c mouse assessed as inhibition of production of protective antibodies at 100 mg/kg, ip treated 8 days before infection for 3 weeks measured after 62 days postinfection

Mus musculus [2] = species: Mus musculus; details: BALB/c, 100 mg/kg; remark: listed apart in the source
Description: Immunosuppressive activity against MAV-1 infected BALB/c mouse assessed as inhibition of production of protective antibodies at 100 mg/kg, ip treated 8 days before infection for 2 weeks measured after 62 days postinfection

Mus musculus [3] = species: Mus musculus; details: BALB/c, T-cell, 100 mg/kg
Description: Immunosuppressive activity against MAV-1 infected BALB/c mouse assessed as T cells suppression at 100 mg/kg, ip treated 8 days before infection for 4 weeks measured 14 days post infection by flow cytometry

O=P1(N(CCCl)CCCl)NCCCO1 (centres undefined)
inhibition (Murine adenovirus 1): Active
inhibition (Mus musculus [1]): inactive
inhibition (Mus musculus [2]): Active
inhibition (Mus musculus [3]): Active
